# System: 786-O (renal cell carcinoma) cells
# Experiment: Cell viability (CellTiter Glo) assay, inhibition of 786-O cell proliferation
# Format: cell-based
# Details: Homo sapiens, 786-0, 72 h, read-out: IC50, inhibition of 786-O cell proliferation
row,Compound,IC50
1,CC(C)N(CC(F)(F)F)C(=N)OCc1ncc2c(n1)N(c1ccc(Oc3ccccc3)cc1)CCO2 [Compound E125],500 to 5000 nM
2,CC(C)N(CC(F)(F)F)C(=N)OCc1ncc2c(n1)N(c1ccc(OC3CCCCC3)nc1)CCO2 [Compound E126],500 to 5000 nM

# Same assay, conditions: Homo sapiens, 786-0; 786-O cells, 72 hours, CellTiter Glo; read-out: IC50, inhibition of 786-O cell proliferation
row,Compound,IC50
1,CNc1nc(COC(=N)N2CCC[C@@H]2C(F)(F)F)nc2c1C(C)(C)C(=O)N2c1cnc2c(C(C)C)cnn2c1 [Compound E67],< 100 nM
2,CNc1nc(COC(=N)N2CCC[C@@H]2C(F)(F)F)nc2c1C(C)(C)C(=O)N2c1ccc2c(c1)CCO2 [Compound E68],< 100 nM
3,CNc1nc(COC(=N)N2CCC[C@@H]2C(F)(F)F)nc2c1C(C)(C)C(=O)N2c1ccc(N2C[C@@H](C)O[C@@H](C)C2)nc1 [Compound E69],< 100 nM
4,N=C(OCc1nc(NC2CC2)c2c(n1)N(c1ccc(N3CCOCC3)cc1)C(=O)C21CCCCC1)N1CCC[C@@H]1C(F)(F)F [Compound E71],< 100 nM
5,N=C(OCc1nc(NC2CC2)c2c(n1)N(c1ccc(N3CCOCC3)c(F)c1)C(=O)C21CCCCC1)N1CCC[C@@H]1C(F)(F)F [Compound E73],< 100 nM
6,CC1(C)C(=O)N(c2ccc(N3CCOCC3)cc2)c2nc(COC(=N)N3CCC[C@@H]3C(F)(F)F)nc(N3CC(F)(F)C3)c21 [Compound E74],100 to 500 nM
7,COc1cc(N2CCOCC2)ccc1N1CC(C)(C)c2c(N)nc(COC(=N)N3CCC[C@@H]3C(F)(F)F)nc21 [Compound E77],< 100 nM
8,N=C(OCc1nc(N)c2c(n1)N(c1cnc(N3CCOCC3)nc1)C(=O)C21CCCC1)N1CCC[C@@H]1C(F)(F)F [Compound E78],< 100 nM
9,CNc1nc(COC(=N)N2CCC[C@@H]2C(F)(F)F)nc2c1C1(CCCC1)C(=O)N2c1cnc(N2CCOCC2)nc1 [Compound E80],< 100 nM
10,N=C(OCc1nc(N)c2c(n1)N(c1cnc(N3CCC(F)(F)C3)nc1)C(=O)C21CCCC1)N1CCC[C@@H]1C(F)(F)F [Compound E82],< 100 nM
11,CNc1nc(COC(=N)N2CCC[C@@H]2C(F)(F)F)nc2c1C1(CCCC1)C(=O)N2c1cnc(N2CCC(F)(F)C2)nc1 [Compound E83],< 100 nM
12,N=C(OCc1nc(N)c2c(n1)N(c1cnc(N3CCC(F)(F)CC3)nc1)C(=O)C21CCCC1)N1CCC[C@@H]1C(F)(F)F [Compound E84],< 100 nM
13,N=C(OCc1nc(N)c2c(n1)N(c1cnc(N3CC(F)(F)C3)nc1)C(=O)C21CCCC1)N1CCC[C@@H]1C(F)(F)F [Compound E85],< 100 nM
14,CNc1nc(COC(=N)N2CCC[C@@H]2C(F)(F)F)nc2c1C1(CCCC1)C(=O)N2c1cnc(N2CC(F)(F)C2)nc1 [Compound E86],< 100 nM
15,"CNc1nc(COC(=N)N2CCC[C@@H]2C(F)(F)F)nc2c1C1(CCCC1)C(=O)N2c1cnc(N2CC3CC2CO3)nc1 (stereo partly drawn) [Compound E96, (7′-(2-(2-oxa-5-azabicyclo[2.2.1]heptan-5-yl)pyrimidin-5-yl)-4′-(methylamino)-6′-oxo-6′,7′-dihydrospiro[cyclopentane-1,5′-pyrrolo[2,3-d]pyrimidin]-2′-yl)methyl (2R)-2-(trifluoromethyl)pyrrolidine-1-carbimidate]",100 to 500 nM
16,N=C(OCc1nc(N)c2c(n1)N(c1cnc(N3CC4CC3CO4)nc1)C(=O)C21CCCC1)N1CCC[C@@H]1C(F)(F)F (some centres unmarked) [Compound E98],500 to 5000 nM
17,CC1(C)CC(c2ncc(N3C(=O)C4(CCCC4)c4c(N)nc(COC(=N)N5CCOCC5C(F)(F)F)nc43)cn2)CC(C)(C)O1 (centres unmarked) [Compound E101],500 to 5000 nM

row,Compound,IC50
1,CNc1nc(COC(=N)N2CCC[C@@H]2C(F)(F)F)nc2c1C1(CCCC1)C(=O)N2c1cnc(C2CC(C)(C)OC(C)(C)C2)nc1 [Compound E102],100 to 500 nM
2,C[C@@H]1CN(c2ncc(N3C(=O)C4(CCCC4)c4c(N)nc(COC(=N)N5CCOC[C@H]5C(F)(F)F)nc43)cn2)C[C@H](C)O1 [Compound E104A],100 to 500 nM
3,C[C@@H]1CN(c2ncc(N3C(=O)C4(CCCC4)c4c(N)nc(COC(=N)N5CCOC[C@@H]5C(F)(F)F)nc43)cn2)C[C@H](C)O1 [Compound E104B],< 100 nM
4,C[C@@H]1CN(c2ncc(N3C(=O)C(C)(C)c4c(N)nc(COC(=N)N5CCC[C@@H]5C(F)(F)F)nc43)cn2)C[C@H](C)O1 [Compound E105],< 100 nM
5,CNc1nc(COC(=N)N2CCC[C@@H]2C(F)(F)F)nc2c1C(C)(C)CN2c1ccc(N2CCOCC2)cc1OC [Compound E106],< 100 nM
6,CNc1nc(COC(=N)N2CCC[C@H]2C(F)(F)F)nc2c1C(C)(C)CN2c1ccc(N2CCOCC2)cc1OC [Compound E107],< 100 nM
7,CNc1nc(COC(=N)N2CCC[C@H]2C(F)(F)F)nc2c1C(C)(C)C(=O)N2c1ccc(N2CCOCC2)cc1 [Compound E108],< 100 nM
8,N=C(OCc1nc(NC2CC2)c2c(n1)N(c1cnc(N3CCOCC3)nc1)C(=O)C21CCCC1)N1CCC[C@@H]1C(F)(F)F [Compound E111],< 100 nM
9,CNc1nc(COC(=N)N2CCCC2C(F)(F)F)nc2c1C(C)(C)C(=O)N2c1ccc(N2C[C@@H](C)O[C@@H](C)C2)nc1 (some centres unmarked) [Compound E113],< 100 nM
10,CNc1nc(COC(=N)N2CCC[C@@H]2C(F)(F)F)nc2c1C(C)(C)C(=O)N2c1ccc(N2CCOCC2)cc1 [Compound E114],< 100 nM
11,CNc1nc(COC(=N)N2CC(F)(F)C[C@H]2C)nc2c1C(C)(C)C(=O)N2c1ccc(N2C[C@@H](C)O[C@@H](C)C2)nc1 [Compound E115],100 to 500 nM
12,CNc1nc(COC(=N)N2CC(F)(F)C[C@@H]2C)nc2c1C(C)(C)C(=O)N2c1ccc(N2C[C@@H](C)O[C@@H](C)C2)nc1 [Compound E116],100 to 500 nM
13,CC1(C)C(=O)N(c2ccc(N3CCOCC3)cc2)c2nc(COC(=N)N3CCC[C@@H]3C(F)(F)F)nc(N)c21 [Compound E117],< 100 nM
14,N=C(OCc1ncc(C2CCCO2)c(Nc2ccc(Oc3ccccc3)cc2)n1)N1CCCCC1C(F)(F)F (centres unmarked) [Compound E119],< 100 nM
15,CC1(C)CN(c2ccc(Oc3ccccc3)cc2)c2nc(COC(=N)N3CCCC34CCOCC4)ncc21 [Compound E121],500 to 5000 nM
16,N=C(OCc1nc(N)nc(Nc2ccc(Oc3ccccc3)cc2)n1)N1CCCC12CCOCC2 [Compound E122],500 to 5000 nM

# More lines, now with the values ahead:
row,IC50,Compound
1,< 100 nM,CC1(C)C(=O)N(c2ccc(N3CCC4(CC3)CC4)nc2)c2nc(COC(=N)N3CCC[C@@H]3C(F)(F)F)nc(N)c21 [Compound E70]
2,< 100 nM,N=C(OCc1ncc2c(n1)N(c1ccc(N3CCOCC3)cc1)C(=O)C21CCCC1)N1CCC[C@@H]1C(F)(F)F [Compound E72]
3,< 100 nM,CCN(CC)c1ncc(N2C(=O)C3(CCCC3)c3c(N)nc(COC(=N)N4CCC[C@@H]4C(F)(F)F)nc32)cn1 [Compound E75]
4,100 to 500 nM,CCN(CC)c1ncc(N2C(=O)C3(CCCC3)c3c(NC(C)C)nc(COC(=N)N4CCC[C@@H]4C(F)(F)F)nc32)cn1 [Compound E76]
5,100 to 500 nM,CC(C)Nc1nc(COC(=N)N2CCC[C@@H]2C(F)(F)F)nc2c1C1(CCCC1)C(=O)N2c1cnc(N2CCOCC2)nc1 [Compound E79]
6,< 100 nM,CC(C)Nc1nc(COC(=N)N2CCC[C@@H]2C(F)(F)F)nc2c1C1(CCCC1)C(=O)N2c1cnc(N2CCC(F)(F)C2)nc1 [Compound E81]
7,500 to 5000 nM,CC1(C)C(=O)N(c2cnc(C3CCOCC3)nc2)c2nc(COC(=N)N3CCC[C@@H]3C(F)(F)F)nc(NC3CCC3)c21 [Compound E89]
8,100 to 500 nM,N=C(OCc1nc(N)c2c(n1)N(c1cnc(C(F)(F)F)nc1)C(=O)C21CCCC1)N1CCC[C@@H]1C(F)(F)F [Compound E90]
9,< 100 nM,N=C(OCc1nc(NC2CCC2)c2c(n1)N(c1ccc(N3CCOCC3)cc1)C(=O)C21CCCC1)N1CCC[C@@H]1C(F)(F)F [Compound E91]
10,100 to 500 nM,"C[C@@H]1CN(c2ncc(N3C(=O)C4(CCCC4)c4c(NC5CCC5)nc(COC(=N)N5CCC[C@@H]5C(F)(F)F)nc43)cn2)C[C@H](C)O1 [Compound E92, [4′-(cyclobutylamino)-7′-{2-[(2R,6S)-2,6-dimethylmorpholin-4-yl]pyrimidin-5-yl}-6′-oxo-6′,7′-dihydrospiro[cyclopentane-1,5′-pyrrolo[2,3-d]pyrimidin]-2′-yl]methyl (2R)-2-(trifluoromethyl)pyrrolidine-1-carboximidate]"
11,< 100 nM,CNc1nc(COC(=N)N2CCC[C@@H]2C(F)(F)F)nc2c1C1(CCCC1)C(=O)N2c1cnc(C2=CCOCC2)nc1 [Compound E95]
12,< 100 nM,CCN(CC(F)(F)F)C(=N)OCc1nc(NC)c2c(n1)N(c1ccc(N3CCOCC3)cc1)C(=O)C2(C)C [Compound E109]
13,< 100 nM,N=C(OCc1nc(NC2CC2)c2c(n1)N(c1cnc(N3CCC(F)(F)CC3)nc1)C(=O)C21CCCC1)N1CCC[C@@H]1C(F)(F)F [Compound E112]
14,< 100 nM,N=C(OCc1ncc2c(n1)N(c1cnc(N3CCC(F)(F)CC3)nc1)C(=O)C21CCCC1)N1CCC[C@@H]1C(F)(F)F [Compound E118]
15,500 to 5000 nM,CC(C)N(CC(F)(F)F)C(=N)OCc1ncc(C2=CCOCC2)c(Nc2ccc(N3CCOCC3)nc2)n1 [Compound E120]
16,> 5000 nM,CC(C)N(CC(F)(F)F)C(=N)OCc1ncc(C2CCOCC2)c(Nc2ccc(N3CCOCC3)nc2)n1 [Compound E124]
17,100 to 500 nM,CC(C)N(CC(F)(F)F)C(=N)OCc1ncc2c(n1)N(c1ccc(OC3CCCCC3)nc1)CC2(C)C [Compound E127]
18,100 to 500 nM,CCC(CC)Oc1ccc(N2CC(C)(C)c3cnc(COC(=N)N(CC(F)(F)F)C(C)C)nc32)nc1 [Compound E128]
19,100 to 500 nM,CC(C)N(CC(F)(F)F)C(=N)OCc1ncc2c(n1)N(c1ccc(N3CCOCC3)nc1)CC2(C)C [Compound E129]
20,100 to 500 nM,CC(C)Oc1cnc(COC(=N)N(CC(F)(F)F)C(C)C)nc1Nc1ccc(Oc2ccccc2)cc1 [Compound E131]
21,100 to 500 nM,CC(C)N(CC(F)(F)F)C(=N)OCc1ncc2c(n1)N(c1ccc(OC3CCCC3)nc1)C(=O)C21CC1 [Compound E132]
22,500 to 5000 nM,CC(C)Oc1ccc(N2C(=O)C3(CC3)c3cnc(COC(=N)N(CC(F)(F)F)C(C)C)nc32)cn1 [Compound E133]
23,500 to 5000 nM,CC(C)N(CC(F)(F)F)C(=N)OCc1ncc2c(n1)N(C1CCC(Oc3ccccn3)CC1)C(=O)C21CC1 (centres unmarked) [Compound E134]
24,500 to 5000 nM,CC(C)N(CC(F)(F)F)C(=N)OCc1ncc2c(n1)N(c1ccc(OC3CCCCC3)cn1)CC2(C)C [Compound E135]
